Laboratory results: US20200215016A1, “Ketone Bodies To Protect Tissues From Damage By Ionizing Radiation” (TDELTAS LIMITED, priority 2012, published 2020)

Experiments:
[1] = Ketone ester blood metabolite levels / ketosis after administration; assay type: in vivo; conditions: FIG. 5: 5 grams/kg dose, males
Procedure: FIG. 5 is a graph illustrating ketone ester blood metabolite levels (5 grams/kg dose, males).
To maintain elevated blood ketone body concentrations over a 24 hour period, delayed release formulations can be used. The release of the (R)-3-hydroxybutyrate derivatives can be controlled by a number of formulation techniques. For example, techniques such as enteric coatings, film coatings, microencapsulation and the like can be used to retard release of the (R)-3-hydroxybutyrate derivatives as is known to those of ordinary skill in the art.

[2] = test system: Human osteoblast cells (HOS); experiment: Cellular radioprotection of cultured osteoblasts exposed to 60Co gamma radiation; assay type: cell-based; conditions: ketone ester administered after radiation
Procedure: FIG. 1 is a pair of graphs illustrating cellular radioprotection by ketone esters. Human osteoblast cells (HOS) were treated with ketone esters either pre-(left panel) or post-(right panel) ^60Co gamma radiation (0.6 Gy/min). The methods used in the studies of cultured cells were the same as previously reported in Miller A. C. et al., Int. J. of Radiation Biol. 1997, 72: 211-18. The ester composition used was the mono R 3 hydroxybutyryl-R-1,3 butanediol enantiomerically enriched in the 1 position of R-1,3 butanediol. Studies were performed using cultured osteoblasts exposed to gamma radiation with and without (R)-1,3-butanediol ester of (R)-3-hydroxybutyrate as described herein to determine the effect of ketone esters on radiation damage. FIG. 1 is a pair of graphs illustrating cellular radioprotection by ketone esters in which human cultured osteoblast cells were treated pre- or post […] gamma radiation (0.6 Gy/min) with a ketone ester. FIG. 2 illustrates chromosomal protection by ketone esters. FIG. 3 is a pair of graphs illustrating protection against proton radiation after administration of ketones in which human cultured osteoblast cells were treated pre- or post-proton radiation (4 MeV) with a ketone ester. FIG. 4 is a graph illustrating ketone ester stability at pH 7. FIG. 5 is a graph illustrating ketone ester blood metabolite levels. […]

HOS cells = experiment: Protection of cultured osteoblasts against proton radiation (4 MeV): cell survival and DNA damage; assay type: cell-based, human; conditions: ketone treatment prior to proton radiation (4 MeV)
Procedure: FIG. 3 is a pair of graphs and images illustrating protection against proton radiation after administration of ketones. HOS cells were treated with ketone esters either pre- or post-proton radiation (4 MeV). […] The methods used in the studies of cultured cells were the same as previously reported in Miller A. C. et al., Int. J. of Radiation Biol. 1997, 72: 211-18. The ester composition used was the mono R 3 hydroxybutyryl-R-1,3 butanediol enantiomerically enriched in the 1 position of R-1,3 butanediol. Studies were performed using cultured osteoblasts exposed to gamma radiation with and without (R)-1,3-butanediol ester of (R)-3-hydroxybutyrate as described herein to determine the effect of ketone esters on radiation damage. FIG. 1 is a pair of graphs illustrating cellular radioprotection by ketone esters in which human cultured osteoblast cells were treated pre- or post […] gamma radiation (0.6 Gy/min) with a ketone ester. FIG. 2 illustrates chromosomal protection by ketone esters. FIG. 3 is a pair of graphs illustrating protection against proton radiation after administration of ketones in which human cultured osteoblast cells were treated pre- or post-proton radiation (4 MeV) with a ketone ester. FIG. 4 is a graph illustrating ketone ester stability at pH 7. FIG. 5 is a graph illustrating ketone ester blood metabolite levels. […]

C[C@@H](O)CCOC(=O)C[C@@H](C)O [ketone esters, mono R 3 hydroxybutyryl-R-1,3 butanediol]
generation of ketosis [1]: sustained generation of ketosis over a period of hours | cell salvage [2]: increases cell salvage | cell survival (HOS cells; FIG. 3 left graph): increased cell survival | DNA damage (HOS cells; FIG. 3 right graph): mitigated DNA damage
